Experimental data taken from patent US20230099344A1, “COMPOUNDS AND METHODS FOR THE TARGETED DEGRADATION OF IRAK-4” (Arvinas Operations, Inc., priority 2021, published 2023).

Assays:
Assay type in all cases: cell-based
IL8 = experiment: IL-1β stimulated IL8 inhibition assay in PBMC; conditions: human PBMCs, IL-1β stimulation, compound overnight, IL8 by MSD after 24 hrs; for IC50: read-out: IL1β stim IL8 inhibition IC50; for Emax: read-out: IL1β stim IL8 inhibition Ymax
Procedure: (§1) IL-1β, LPS, or R848 Stimulated IL6 Inhibition and IL-1β Stimulated IL8 Inhibition Assay
(§2) Human PBMC cells were seeded at 2.0×10^6 cells/mL, treated with compound overnight, and dosed with the EC50 concentration of each stimulant (either IL-1B. LPS, or R848) was determined for each donor. After 24 hrs, media was collected and analyzed by MSD for IL6 and/or IL8 levels.

IL6 = experiment: IL-1β stimulated IL6 inhibition assay in PBMC; conditions: PBMC, human PBMCs, IL-1β stimulation, compound overnight, IL6 by MSD after 24 hrs; for IC50: Homo sapiens, 24 h, read-out: IL1β stim IL6 inhibition IC50; for Emax: read-out: IL1β stim IL6 inhibition Ymax
Procedure: as §1, §2

IRAK-4 [1] = target: T1, IRAK-4 (Homo sapiens, UniProt Q9NWZ3); experiment: IRAK-4 ELISA, OCI-Ly10 degradation; design: endogenous in cells; conditions: treated overnight; for Dmax: OCI-Ly10, OCI-Ly10 cells; for DC50: OCI-Ly10 cells
T1 sequence (Q9NWZ3 1-460): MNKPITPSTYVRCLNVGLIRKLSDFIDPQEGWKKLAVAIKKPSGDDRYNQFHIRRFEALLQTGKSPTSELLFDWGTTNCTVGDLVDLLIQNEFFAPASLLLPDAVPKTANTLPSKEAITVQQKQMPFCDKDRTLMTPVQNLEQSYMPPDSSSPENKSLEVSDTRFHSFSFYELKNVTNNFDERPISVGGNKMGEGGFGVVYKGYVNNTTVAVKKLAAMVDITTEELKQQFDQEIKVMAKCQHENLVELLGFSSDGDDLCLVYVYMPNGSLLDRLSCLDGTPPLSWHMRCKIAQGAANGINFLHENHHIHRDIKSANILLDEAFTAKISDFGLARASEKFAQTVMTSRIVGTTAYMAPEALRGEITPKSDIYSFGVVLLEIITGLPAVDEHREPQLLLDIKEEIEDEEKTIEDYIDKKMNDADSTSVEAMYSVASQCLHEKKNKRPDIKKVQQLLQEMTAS
How it was run: (§3)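 Steps: seed cells (OCI-Ly10 1×10^6/ml; PBMC 2×10^6/ml); add compound the same day; incubate overnight; lyse; quantify IRAK-4 by matched-pair ELISA.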

IRAK-4 [2] = target: T1, IRAK-4; experiment: IRAK-4 ELISA, PBMC degradation; design: endogenous in cells; host or cells: PBMC; conditions: treated overnight
How it was run: as §3

| IC50 (IL8) | IC50 (IL6) | Dmax (IRAK-4 [1]) | DC50 (IRAK-4 [1]) | DC50 (IRAK-4 [2]) | Dmax (IRAK-4 [2]) | PBMC DC90 (IRAK-4 [2]) | Compound | Emax (IL8) | Emax (IL6) |
| --- | --- | --- | --- | --- | --- | --- | --- | --- | --- |
| 10 to 50 nM | 10 to 50 nM | 80 to 90% | < 10 nM | < 1 nM | 80 to 90% | A (A represents a DC90 value <10.0 nM) | O=C1CCC(N2Cc3cc(N4CCC(F)(CN5CCC(n6cc7cc(NC(=O)c8cnn9cccnc89)c(OCC8CC8)cc7n6)CC5)CC4)ccc3C2=O)C(=O)N1 (stereo not drawn) [Example 278] | ≥ 90% | ≥ 90% |
| 10 to 50 nM | < 10 nM | ≥ 90% | < 10 nM | < 1 nM | ≥ 90% | A (A represents a DC90 value <10.0 nM) | CN(C1CN(c2ccc3c(c2)CN(C2CCC(=O)NC2=O)C3=O)C1)[C@H]1CC[C@H](n2cc3cc(NC(=O)c4cnn5cccnc45)c(OCC4CC4)cc3n2)CC1 (stereo partly drawn) [Example 339] | 70 to 80% | ≥ 90% |
| < 10 nM | < 10 nM | ≥ 90% | < 10 nM | 1 to 5 nM | ≥ 90% | A (A represents a DC90 value <10.0 nM) | COc1cc2nn([C@H]3CC[C@H](N(C)C4CN(c5ccc6c(c5)CN(C5CCC(=O)NC5=O)C6=O)C4)CC3)cc2cc1NC(=O)c1cnn2cccnc12 (stereo partly drawn) [Example 337] | < 70% | ≥ 90% |
| 10 to 50 nM | < 10 nM | – | – | < 1 nM | ≥ 90% | A (A represents a DC90 value <10.0 nM) | O=C1CCC(N2Cc3cc(N4CC(N5CCC(n6cc7cc(NC(=O)c8cnn9cccnc89)c(OCC8CC8)cc7n6)CC5)C4)ccc3C2=O)C(=O)N1 (stereo not drawn) [Example 283] | < 70% | ≥ 90% |

More lines, now with the values behind:

| Compound | IC50 (IL8) | IC50 (IL6) | Dmax (IRAK-4 [1]) | DC50 (IRAK-4 [1]) | DC50 (IRAK-4 [2]) | Dmax (IRAK-4 [2]) | PBMC DC90 (IRAK-4 [2]) | Emax (IL8) | Emax (IL6) |
| --- | --- | --- | --- | --- | --- | --- | --- | --- | --- |
| COc1cc2nn([C@H]3CC[C@H](OC4CN(c5ccc6c(c5)C(=O)N(C5CCC(=O)NC5=O)C6=O)C4)CC3)cc2cc1NC(=O)c1cnn2cccnc12 (stereo partly drawn) [Example 212] | 50 to 100 nM | 10 to 50 nM | ≥ 90% | < 10 nM | < 1 nM | ≥ 90% | A (A represents a DC90 value <10.0 nM) | < 70% | 80 to 90% |
| COc1cc2nn([C@H]3CC[C@H](N(C)C4CCN(c5ccc6c(c5)C(=O)N(C5CCC(=O)NC5=O)C6=O)CC4)CC3)cc2cc1NC(=O)c1cnn2cccnc12 (stereo partly drawn) [Example 335] | ≥ 100 nM | < 10 nM | ≥ 90% | < 10 nM | < 1 nM | ≥ 90% | A (A represents a DC90 value <10.0 nM) | – | ≥ 90% |
| CC(C)Oc1cc2c(cc1NC(=O)c1cnn3cccnc13)CN([C@H]1CC[C@H](N3CCN(c4ccc5c(c4)C(=O)N(C4CCC(=O)NC4=O)C5=O)CC3)CC1)C2=O (stereo partly drawn) [Example 66] | 50 to 100 nM | 10 to 50 nM | – | – | 1 to 5 nM | ≥ 90% | A (A represents a DC90 value <10.0 nM) | 70 to 80% | ≥ 90% |
| CC(C)Oc1cc2c(cc1NC(=O)c1cnn3cccnc13)CN(C1CCN(CC3CCN(c4ccc5c(c4)CN(C4CCC(=O)NC4=O)C5=O)CC3)CC1)C2=O (stereo not drawn) [Example 6] | 10 to 50 nM | < 10 nM | – | – | < 1 nM | ≥ 90% | 6 nM | 80 to 90% | ≥ 90% |
| CC(C)Oc1cc2c(cc1NC(=O)c1cnn3cccnc13)CN(C1CCC(N(C)C3CN(c4ccc5c(c4)CN(C4CCC(=O)NC4=O)C5=O)C3)CC1)C2=O (stereo not drawn) [Example 314] | 10 to 50 nM | < 10 nM | – | – | < 1 nM | 80 to 90% | A (A represents a DC90 value <10.0 nM) | 70 to 80% | ≥ 90% |
